Reference: patent US12209038B2, “Effluent” (LINCOLN UNIVERSITY, priority 2019, dated 2025)
Where two headings read alike, the source gives them in different places.

What was measured:
[1] = 200 mg Fe/L of FDE, same rate of PFS and FS
Method: The objective of Experiment 6 was to compare the effectiveness of ferric sulphate (FS) versus polyferric sulphate (PFS) to reduce methane emissions from treated effluent. Experiment 6 was conducted using the same large (3.5 m deep×0.5 m diameter) PVC pipes described in Experiment 5. The gas capture equipment and measurement process were also identical to that described in Experiment 5.
There were three treatments: (i) untreated FDE; (ii) TE produced using PFS and (iii) TE produced using FS. There were four replicates of each treatment set out in a randomised block design. Five hundred and sixty litres of farm dairy effluent were pumped from the FDE storage pond on Lincoln University Dairy Farm into each column leaving a head space height of 10 cm. The same rate of PFS and FS was used (200 mg Fe/L of FDE). The PFS and FS solution was mixed into the effluent for two minutes using a handheld electric drill fitted with a paddle stirrer.

[2] = Experiment 7: glass jars, different sulphate and/or iron compounds, methane and hydrogen sulphide
Method: The objective of Experiment 7 was to measure the effect of different sulphate and/or iron compounds on emissions of methane and hydrogen sulphide gases from treated effluent. The experiment was conducted using the same 1.5 L glass jars and methods of measurement described in Experiment 2 above. There were 10 treatments: (i) untreated FDE, (ii) PFS treated effluent, (iii) calcium sulphate (CaSO4) treated effluent, (iv) potassium sulphate (K2SO4) treated effluent, (v) aluminium sulphate (Al2(SO4)3) treated effluent, (vi) magnesium sulphate (MgSO4) treated effluent, (vii) sodium sulphate (Na2SO4) treated effluent, (viii), ferrous sulphate (i.e. the divalent form of iron sulphate) (FeSO4) treated effluent, (ix) ferric chloride (FeCl3) treated effluent, and (x) ferrous chloride (FeCl2) treated effluent. The sulphate treatment chemicals were all used at the same rate of sulphate as applied in the PFS treatment (326 mg SO4/L) and the iron treatment chemicals were all used at the same rate of iron as applied in the PFS treatment (133 mg Fe/L).

[3] = iron chemicals at 133 mg Fe/L, same iron rate as PFS treatment

| SMILES | amount of methane emitted from FDE [2] | effectiveness in reducing methane emitted compared with PFS [2] | emission of hydrogen sulphide (H2S) [2] | also measured |
| --- | --- | --- | --- | --- |
| O=S(=O)([O-])[O-].O=S(=O)([O-])[O-].O=S(=O)([O-])[O-].[Fe+3].[Fe+3] [FS, ferric sulphate] | – | – | – | effectiveness in reducing the methane emission flux compared with PFS [1]: equally as effective; effectiveness in reducing the total amount of methane emitted compared with PFS [1]: equally as effective |
| O=S(=O)([O-])[O-].[Ca+2] [calcium sulphate] | can be reduced | none of these chemicals were as effective as PFS | continued to produce, or enhanced the production of | – |
| [Cl][Fe]([Cl])[Cl] [ferric chloride] | – | – | – | effectiveness in reducing methane emission compared with PFS [2, 3]: not nearly as effective |
| [Cl][Fe][Cl] [ferrous chloride] | – | – | – | effectiveness in reducing methane emission compared with PFS [2, 3]: not nearly as effective |
| O=S(=O)([O-])[O-].[Fe+2] [ferrous sulphate] | – | – | – | effectiveness in reducing methane emission compared with PFS [2]: not nearly as effective |
| O=S(=O)([O-])[O-].[Mg+2] [magnesium sulphate] | can be reduced | none of these chemicals were as effective as PFS | continued to produce, or enhanced the production of | – |
| O=S(=O)([O-])[O-].[K+].[K+] [potassium sulphate] | can be reduced | none of these chemicals were as effective as PFS | continued to produce, or enhanced the production of | – |
| O=S(=O)([O-])[O-].[Na+].[Na+] [sodium sulphate] | can be reduced | none of these chemicals were as effective as PFS | continued to produce, or enhanced the production of | – |
